T1: TNFR2 on transiently transfected cells (UniProt P20333 23-461, limits assumed)
T1 construct: whole, on cells
T1 sequence (looked up): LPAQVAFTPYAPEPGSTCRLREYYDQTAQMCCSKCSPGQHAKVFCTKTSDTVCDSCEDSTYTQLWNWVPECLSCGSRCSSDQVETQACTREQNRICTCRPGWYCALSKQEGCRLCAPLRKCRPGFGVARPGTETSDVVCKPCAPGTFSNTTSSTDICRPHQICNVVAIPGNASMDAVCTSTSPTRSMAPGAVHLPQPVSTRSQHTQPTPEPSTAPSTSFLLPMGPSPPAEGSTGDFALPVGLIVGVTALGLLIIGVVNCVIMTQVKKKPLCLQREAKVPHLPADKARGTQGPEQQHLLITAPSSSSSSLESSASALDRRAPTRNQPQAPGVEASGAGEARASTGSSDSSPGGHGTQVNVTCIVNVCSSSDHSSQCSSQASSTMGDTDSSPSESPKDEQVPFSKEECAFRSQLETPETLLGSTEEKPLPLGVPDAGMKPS

T2: HveA on transiently transfected cells (UniProt Q92956 39-283, limits assumed)
T2 construct: whole, on cells
T2 sequence (looked up): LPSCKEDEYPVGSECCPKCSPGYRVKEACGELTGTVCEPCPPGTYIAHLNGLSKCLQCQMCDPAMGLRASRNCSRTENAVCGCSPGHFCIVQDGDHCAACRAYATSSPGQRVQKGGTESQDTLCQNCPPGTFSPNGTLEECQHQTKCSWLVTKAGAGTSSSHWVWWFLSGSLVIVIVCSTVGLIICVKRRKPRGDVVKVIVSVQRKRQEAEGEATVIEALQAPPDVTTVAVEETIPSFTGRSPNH


What was measured:
HL-60 = assay: TNF-gamma activity on HL-60 cells (incl. cell adhesion); type: cell-based, human; design: key to Proliferation / Differentiation / Adhesion: The numbers of “+” indicate the relative level of activities.; ++: The numbers of “+” indicate the relative level of activities.; +++: The numbers of “+” indicate the relative level of activities.; “−” indicates no detected activity at the concentration range tested
Description: The adherent target cells were prepared from confluent cultures by trypsinization in PBS, and non-adherent target cells were harvested from stationary cultures and washed once with medium. Target cells were suspended at 3×10^5 cells/ml in medium containing 10% FCS. 0.1 ml aliquots were dispensed into 96-well flat-bottomed microtiter plates containing 0.1 ml serially diluted test samples of cells (WEHI 164 and L929). Incubation was continued for 70 hours. TNF-alpha, TNF-beta and bacterially-produced TNF-gamma were added at a 0.5 μg/ml concentration. The cytotoxicity and proliferation activity was quantified using an MTS assay performed by the addition of 20 μl of MTS and phenazine methosulfate (PMS) solution to each well. After a three hour incubation, the OD at 492 nm was measured by an ELISA plate reader. The OD492 is proportional to the number of viable cells in the wells. The percent of cytotoxicity was calculated as follows: […]. The photographs were taken after 72 hours.
To test adhesion ability of TNF-gamma, HL-60 cells were used and cell adhesion and cell-cell contact were measured by observation under the microscope and scored subjectively by two independent investigators. FIG. 11 illustrates the ability of TNF-gamma to induce cell adhesion. Cultures which were not treated with TNF-gamma contained cells which had spread throughout the culture dish.

[1] = system: Primary human aterial endothelial; assay: TNF-gamma activity on primary human arterial endothelial cells; type: cell-based; design: key: The numbers of “+” indicate the relative level of activities.; ++: The numbers of “+” indicate the relative level of activities.; +++: The numbers of “+” indicate the relative level of activities.; “−” indicates no detected activity at the concentration range tested
[2] = system: adult bovine aortic endothelial cells; assay: Endothelial cell apoptosis; type: cell-based
[3] = system: bFGF-induced corneal neovascularization; assay: Corneal angiogenic assay; type: in vivo, rat
Excerpt: Basic FGF (“bFGF”) has been tested in this corneal angiogenic assay in various research laboratories for a variety of purposes. It has been shown that bFGF can induce significant angiogenesis in corneas (e.g., in rabbits, rats and mice). Based on the previous studies, bFGF was used in our study of TNF-gamma as an angiogenic factor to induce the growth of blood vessels in rat corneas.
An incision, 1-1.5 mm in length, is made in the center of the cornea with a microsurgery scalpel blade.
Starting at the incision, a micropocket is created between the collagenous layers of the corneal stroma with a Castroviego cyclodialysis spatula. This pocket extends to a point 1-2 mm from the capillary bed at the corneal-scleral limbus.
bFGF, which is incorporated 1:1 into non-inflammatory Hydron polymer (available from Interferon Sciences, New Brunswick, N.J.), is implanted into the pocket.
Five or seven days after corneal implantation, corneal blood perfusion with colloidal carbon is performed. Corneas are then harvested, fixed, flattened, mounted and photographed for morphology.
An image analysis system (IPLab) is used to quantify the corneal angiogenesis. The corneal surface area, which is covered by the new blood vessels, is quantified and used in our current study. After corneal implantation surgery, TNF-gamma, angiostatin or PBS in a volume of 25 microliters was injected into the conjunctival region adjacent to the implantation site. Based on molarities of TNF-gamma and angiostatin, 10 micrograms of TNF-gamma or 5 micrograms of angiostatin were given respectively four times, once a day, during the first four days post-surgery. TNF-gamma and angiostatin were prepared in PBS.
bFGF was used to induce neovascularization of the cornea from preexisting pericorneal limbal vessels in two different versions of the assay. First, corneas were surgically implanted with hydrogel plugs containing bFGF. […] In a separate study using an alternate version of this assay, both bFGF and treatment protein were co-administered on a nitrocellulose filter disk implanted within the rat corneal stroma. […] In both assays, the surface area of the angiogenic response was quantitated from digital images of treated corneas five days following implantation.

[4] = target: T1, TNFR2 on transiently transfected cells; assay: flow cytometry on transiently transfected cells
Description: (§1) One million cells, in 0.1 ml of FACS buffer (PBS, 0.1% BSA, 0.1% NaN₃), were incubated with 0.1-1 microgram of protein or antibody at RT for 15 min. The cells were washed with 3 ml of FACS buffer, reacted with biotinylated primary antibody, and stained with PE-conjugated secondary antibody at RT for 15 min. Cells were then washed again, resuspended in 0.5 microgram/ml of propidium iodide, and live cells were gated and analyzed on a FACScan using the CellQuest software (BD Biosciences).

[5] = target: T3, 4-1BB on transiently transfected cells (UniProt Q07011 24-255); assay: flow cytometry on transiently transfected cells
T3 construct: whole, on cells
T3 sequence (Q07011 24-255): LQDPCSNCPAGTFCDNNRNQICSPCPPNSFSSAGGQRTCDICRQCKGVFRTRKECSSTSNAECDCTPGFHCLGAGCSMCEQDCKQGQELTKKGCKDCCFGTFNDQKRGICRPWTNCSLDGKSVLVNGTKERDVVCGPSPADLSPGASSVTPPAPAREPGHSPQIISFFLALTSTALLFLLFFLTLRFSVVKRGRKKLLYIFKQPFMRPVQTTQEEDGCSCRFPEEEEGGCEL
Description: as §1

[6] = target: T2, HveA on transiently transfected cells; assay: flow cytometry on transiently transfected cells
Description: as §1

[7] = HL-60, human promyelocytic leukemia

| Molecule | Adhesion (HL-60; [7]) | Differentiation (HL-60; [7]) | Proliferation (HL-60; [7]) | cell adhesion and cell-cell contact (HL-60; HL-60 cells, observation under the microscope (FIG. 11)) | Differentiation [1] | Proliferation [1] | apoptosis [2] | angiogenic process in bFGF-implanted corneas ([3]; bFGF (300 ng) implant, conjunctival injection once a day for four days, 10 micrograms TNF-gamma or 5 micrograms angiostatin, seven days after surgery, vs PBS) | vessel growth in PBS-implanted corneas ([3]; multiple conjunctival injections) | binding result [4] | binding result [5] | binding result [6] |
| --- | --- | --- | --- | --- | --- | --- | --- | --- | --- | --- | --- | --- |
| TNF-gamma: new member of the tumor necrosis factor family; the term refers to TNF-gamma-alpha and/or TNF-gamma-beta | ++ | − | − | clearly aggregated together | −? | ++ | induces apoptosis | significantly slowed down the angiogenic process | no obvious vessel growth |  |  |  |
| FLAG-tagged soluble TNF-gamma-beta (aa 72-251) (ligand, also called FLAG-TL1β; FLAG-TNF-gamma-beta; not shown: The N-terminal FLAG tag (pFLAG-CMV-1 vector) and any vector linker) LKGQEFAPSHQQVYAPLRADGDKPRAHLTVVRQTPTQHFKNQFPALHWEHELGLAFTKNRMNYTNKFLLIPESGDYFIYSQVTFRGMTSECSEIRQAGRPNKPDSITVVITKVTDSYPEPTQLLMGTKSVCEVGSNWFQPIYLGAMFSLQEGDKLMVNVSDISLVDYTKEDKTFFGAFLL |  |  |  |  |  |  |  |  |  | no binding | no binding | no binding |

— patent US20030129189A1, “Tumor necrosis factor-gamma” (priority 1994, published 2003)
